Data set [1] relates to Trypanosoma brucei rhodesiense (Tbr), STIB 900 strain. The data set is described as follows: In vitro activity against Trypanosoma brucei rhodesiense (bloodstream trypomastigotes, STIB 900 strain). Type of data set: cell-based. As to the method: (§1) In vitro biological activity against Trypanosoma brucei rhodesiense (bloodstream trypomastigotes, STIB 900 strain), Plasmodium falciparum (intraerythrocytic form, NF54 strain) and cytotoxicity assay against rat skeletal myoblasts (L6 cell line) were carried out at the Swiss Tropical and Public Health Institute (Swiss TPH, Allschwil, Switzerland) in accordance with the established standard procedures, in exactly the same manner and with the same cell lines as described recently.

Data set [2] deals with Plasmodium falciparum (Pf), NF54 strain. The data set is described as follows: In vitro activity against Plasmodium falciparum (intraerythrocytic form, NF54 strain). The settings on record: for IC50: Plasmodium falciparum. The format is cell-based. As to the method:
as §1

A short description of data set [3]: Cytotoxicity assay against rat skeletal myoblasts (L6 cell line). The format is cell-based. As to the method:
as §1

The subject of data set [4] is Trypanosoma brucei rhodesiense (Tbr), STIB 900 strain. Also on record: method as in PMID 40076324. The note with it: separately tested in a recent study; cited from earlier work.
Data set [5] relates to Plasmodium falciparum (Pf), NF54 strain. Further details: method as in PMID 40076324. The note with it: separately tested in a recent study; cited from earlier work.
Where [6] appears, read: Trypanosoma brucei rhodesiense, mean of two separate IC50 determinations ± absolute deviation, compounds tested as bis- or mono-trifluoroacetates, read-out: Tbr IC50.
Where [7] appears, read: NF54, mean of two separate IC50 determinations ± absolute deviation, compounds tested as bis- or mono-trifluoroacetates, read-out: Pf IC50.

Read-outs that look alike come from different tables or passages of the source.

Regarding `CN[C@H]1[C@H](O)C[C@]23C[C@]24CC[C@]2(C)[C@@H]([C@H](C)N(C)C)CC[C@@]2(C)[C@@H]4CC[C@H]3C1(C)C` [Compound 1, cycloprotobuxoline-C], the half-maximal inhibitory concentration (IC50) in data set [1] (setting [6]) is 6.7 ± 3.3 µM; in data set [2] (setting [7]), 28 ± 0.7 µM; in data set [3], over 100 µM.
On to `CN[C@H]1[C@H](O)C[C@]23C[C@]24CC[C@]2(C)[C@@H]([C@H](C)N(C)C)CC[C@@]2(C)[C@@H]4CC[C@H]3[C@]1(C)COC(=O)c1cc(OC)c(OC)c(OC)c1` [Compound 5, 29-trimethoxybenzoyloxy cycloprotobuxoline-C], for which the concentration for half-maximal inhibition (IC50) was 1.6 ± 0.7 µM in data set [1] (setting [6]); 0.5 µM in data set [2] (setting [7]); under 1 µM in data set [2] (NF54, isolated compounds, tested as trifluoroacetate salts, molar IC50 calculated with mass of the salt, read-out: IC50 against Pf (antiplasmodial activity)).
Regarding `CN[C@@H](C)[C@H]1CC[C@@]2(C)[C@@H]3C=C[C@H]4C(C)(C)[C@@H](N(C)C)CC[C@@]45C[C@@]35CC[C@]12C` [Compound 12, deoxycyclovirobuxeine-B], the IC50 in data set [1] (setting [6]) is 0.8 ± 0.3 µM; in data set [1] (Trypanosoma brucei, isolated compounds, tested as trifluoroacetate salts, molar IC50 calculated with mass of the salt, read-out: IC50 against Tbr (antitrypanosomal activity)), under 1 µM; in data set [2] (setting [7]), 5.4 ± 1.2 µM.
Turning to `CN[C@@H](C)[C@H]1CC[C@@]2(C)[C@@H]3CC[C@H]4[C@]5(C)COCN(C)[C@H]5CC[C@@]45C[C@@]35CC[C@]12C` [Compound 15, N20-demethyl deoxycyclobuxoxazine-A], the IC50 came to 6.6 ± 3.5 µM in data set [1] (setting [6]) and 5.8 ± 0.4 µM in data set [2] (setting [7]).
On to `CN[C@H]1CC[C@]23C[C@]24CC[C@]2(C)[C@@H](C(C)=O)[C@H](OC)C[C@@]2(C)[C@@H]4CC[C@H]3C1` [Compound 16, obtusibuxeine-A], for which the results for the concentration for half-maximal inhibition (IC50) in data set [1] (setting [6]), in data set [2] (setting [7]) and in data set [3] were 22 ± 1.7 µM, 13 ± 1.4 µM and 45 ± 5.1 µM, respectively. In data set [1] (cytotoxic IC50 (L6) / IC50 Tbr), the “SI Tbr (selectivity index)” value stood at 2. Moreover, in data set [2] (cytotoxic IC50 (L6) / IC50 Pf), the “SI Pf (selectivity index)” value was 3.
Turning to `CC(=O)OC1C2OC3(C=CC(NC(=O)c4ccccc4)C(C)(C)C13)CC1=CCC3(C)C(C(C)N(C)C)C(O)CC3(C)C12` (stereo not drawn) [Compound 21, obtusiepoxamine-A], the IC50 in data set [1] (setting [6]) amounted to 2.2 ± 0.2 µM; in data set [2] (setting [7]) it was 10 ± 1.1 µM.
`CC(=O)O[C@H]1[C@@H](O)[C@@H]2C(=CC[C@]3(C)[C@@H]([C@H](C)N(C)C)CC[C@@]23C)CC2=CC[C@H](NC(=O)c3ccccc3)C(C)(C)[C@@H]21` [Compound 23, 16-deoxyobtusidienolamine-A]: the IC50 in data set [1] (setting [6]) came out at 6.5 ± 0.4 µM; in data set [2] (setting [7]) it was 30 ± 6.5 µM.
As to `CCN(CC)CCCC(C)Nc1ccnc2cc(Cl)ccc12` (stereo not drawn) [chloroquine, reference compound], the 50% inhibitory concentration (IC50) in data set [2] (NF54, read-out: IC50 Pf) came out at 2 ng/mL; in data set [2] (NF54, read-out: Pf IC50), 0.012 µM.
For `Nc1nc(N)nc(Nc2ccc([As]3SCC(CO)S3)cc2)n1` (stereo not drawn) [melarsoprol, reference compound], the 50% inhibitory concentration (IC50) came out at 4 ng/mL in data set [1] (Trypanosoma brucei, read-out: IC50 Tbr) and 0.013 ± 0.001 µM in data set [1] (Trypanosoma brucei, read-out: Tbr IC50).
With `COc1cc([C@@H]2c3cc4c(cc3[C@H](O)[C@H]3COC(=O)[C@H]23)OCO4)cc(OC)c1OC` [podophyllotoxin, reference compound], the IC50 in data set [3] (Table 1, crude extracts and acid-base fractions, mean of two determinations ± absolute deviation, read-out: IC50 Cytotox. L6) turned out to be 7 ± 2 ng/mL.
Take `O=C([O-])C(F)(F)F.[Na+]` [sodium trifluoroacetate]: the “activity against the target parasites (Tbr)” value in data set [4] was “inactive”. In data set [5], the “activity against the target parasites (Pf)” value was “inactive”.

Source of the values: publication PMC12693156, “Antiprotozoal Aminosteroid Alkaloids from Buxus obtusifolia (Mildbr.) Hutch” (Molecules, 2025).
